Values quoted from earlier work in patent publication US20110212192A1, “INGESTIBLES CONTAINING SUGAR AND CINNAMON OR GINSENG” (ALLEGIANCE EQUITY CORPORATION, priority 2008, published 2011).

Tests used:
Details in all cases: immunoblotting; mouse 3T3-L1 adipocytes
tristetraprolin (TTP) = tested on: tristetraprolin (TTP)
[1] = tested on: glucose transporter 4 (GLUT4)
insulin receptor (IR) = tested on: insulin receptor (IR)

insulin
increased: level of tristetraprolin (TTP) protein (tristetraprolin (TTP)) | level of glucose transporter 4 (GLUT4) protein [1] | level of insulin receptor (IR) protein (insulin receptor (IR))
